In patent publication US20250206754A1, “PAN-CHEMOKINE ANTAGONISTS FOR USE IN TREATING CANCER AND IMMUNE DISORDERS” ("Micar Innovation" LTD., priority 2022, published 2025):

Key:
[1] = biological target: T1, CCR7 (Homo sapiens, UniProt P32248); assay: Ca^2+ mobilization assay, CCR7; format: cell-based
T1 construct: expressed in transfected cells
T1 sequence (P32248 25-378): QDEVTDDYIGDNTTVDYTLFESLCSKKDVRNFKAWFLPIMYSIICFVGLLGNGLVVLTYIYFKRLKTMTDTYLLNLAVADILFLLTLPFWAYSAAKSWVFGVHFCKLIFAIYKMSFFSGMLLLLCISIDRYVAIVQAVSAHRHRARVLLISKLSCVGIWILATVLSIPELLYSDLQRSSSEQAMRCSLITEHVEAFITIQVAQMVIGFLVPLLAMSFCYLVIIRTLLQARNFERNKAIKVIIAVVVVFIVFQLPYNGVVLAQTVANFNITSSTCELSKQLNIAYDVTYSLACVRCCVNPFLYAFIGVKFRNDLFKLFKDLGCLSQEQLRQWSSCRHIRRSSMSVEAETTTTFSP
Experimental: Selected compounds were initially sent for both antagonist and agonist TANGO β-arrestin assays. […] Replacement only on the amide group with CN led to strong activity decrease in β-arrestin assay: only 31% activity at about 30 μM and similar one at 100 μM (Table 1). Five more derivatives with replaced amide group were also tested in parallel by Ca^2+ mobilization assay and they all were not active up to the tested concertation of 100 μM.
(§1) To examine the colloid aggregation possibility a β-lactamase enzymatic activity counterscreen assay was performed, which is the commonly adopted tool for detection of such properties of the compounds.

[2] = biological target: T2, CCR1 (Homo sapiens, UniProt P32246); assay: β-arrestin selectivity assay, CCR1; format: cell-based
T2 sequence (P32246 1-355): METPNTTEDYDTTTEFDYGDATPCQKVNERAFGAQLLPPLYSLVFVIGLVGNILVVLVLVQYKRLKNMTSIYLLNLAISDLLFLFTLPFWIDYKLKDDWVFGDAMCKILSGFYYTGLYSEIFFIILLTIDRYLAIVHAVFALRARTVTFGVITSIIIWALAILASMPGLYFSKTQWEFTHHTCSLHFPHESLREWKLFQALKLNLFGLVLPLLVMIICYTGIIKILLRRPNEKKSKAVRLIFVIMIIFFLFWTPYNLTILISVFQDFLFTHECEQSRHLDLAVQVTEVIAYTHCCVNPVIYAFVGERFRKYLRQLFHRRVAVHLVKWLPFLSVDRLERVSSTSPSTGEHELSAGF

[3] = biological target: CCR2 (Homo sapiens, UniProt P41597); assay: β-arrestin selectivity assay, CCR2; format: cell-based
Sequence of CCR2 (P41597 whole entry): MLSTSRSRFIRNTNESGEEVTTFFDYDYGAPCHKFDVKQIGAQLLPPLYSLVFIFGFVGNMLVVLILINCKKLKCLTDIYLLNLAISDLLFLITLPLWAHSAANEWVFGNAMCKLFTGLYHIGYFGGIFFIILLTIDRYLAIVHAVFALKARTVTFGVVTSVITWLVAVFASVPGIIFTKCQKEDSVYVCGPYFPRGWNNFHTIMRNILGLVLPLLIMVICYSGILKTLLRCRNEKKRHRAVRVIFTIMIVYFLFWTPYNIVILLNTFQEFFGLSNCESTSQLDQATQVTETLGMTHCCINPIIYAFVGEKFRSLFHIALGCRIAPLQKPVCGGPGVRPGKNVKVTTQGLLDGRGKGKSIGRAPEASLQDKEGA

[4] = biological target: T3, CCR9 (Homo sapiens, UniProt P51686); assay: Ca^2+ mobilization assay, CCR9; format: cell-based
T3 sequence (P51686 1-369): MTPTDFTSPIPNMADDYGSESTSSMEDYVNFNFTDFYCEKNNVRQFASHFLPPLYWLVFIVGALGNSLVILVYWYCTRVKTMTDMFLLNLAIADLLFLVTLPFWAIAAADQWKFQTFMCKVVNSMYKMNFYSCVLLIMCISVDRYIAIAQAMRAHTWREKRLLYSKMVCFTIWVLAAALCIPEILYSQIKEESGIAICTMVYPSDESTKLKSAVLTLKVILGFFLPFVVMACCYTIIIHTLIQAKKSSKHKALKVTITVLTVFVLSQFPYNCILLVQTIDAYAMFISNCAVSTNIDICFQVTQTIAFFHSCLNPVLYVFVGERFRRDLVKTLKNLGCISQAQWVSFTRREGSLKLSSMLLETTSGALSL
Experimental: The Kb values are also retrieved. […] Finally, to make it more clear the second messenger output for Hit1 and confirm the nature of β-arrestin bias GTPγS and ERK assays were also performed. […] Considering that the ERK is directly related to β-arrestin path and binds directly to the arrestin it was concluded that this compound is β-arrestin biased (Table 1 and FIGS. 3A and 3B). Finally, several other potential hits were identified but the activities were in a range of 25-35% at 100 μM concentration and they were discarded in this disclosure.

[5] = tested on: primary human keratinocytes; assay: Cell viability in the keratinocyte inflammation models; format: cell-based; conditions: in the cytokine release models
[6] = tested on: β-lactamase; assay: β-lactamase enzymatic activity counterscreen (colloid aggregation); format: biochemical; conditions: 50 μM
Experimental: as §1

Q: Which results are given for NC(=O)c1ccccc1Oc1ncnc2sc(-c3ccccc3)cc12 [Hit 1, 2-({6-phenylthieno[2,3-d]pyrimidin-4-yl}oxy)benzamide]?
A: inhibition at 100 µM ([1]; 100 μM concentration, read-out: Ca^2+ assay (100 μM), Percent of inhibition): 63%; Kb ([1]; CCR7): 2.8 µM; Hill slope ([1]; Ca^2+ mobilization assay, CCR7): 2.6; IC50 ([1]; Ca^2+ mobilization assay, CCR7): 92 µM; activity change with 0.01% Triton X-100 ([1]; Ca^2+ mobilization assay, CCR7 expressed cells, preliminary data): no activity change; IC50 ([1]; similar Ca^2+ mobilization assay in an independent lab (data not shown)): 25 to 30 µM; Hill coefficient [2]: 2.3; IC50 [2]: 13.6 µM; Hill coefficient [3]: 3.1; IC50 [3]: 2.6 µM; Kb [4]: 5.2 µM; Hill-Slope ([4]; Ca^2+ assay): 0.8; IC50 ([4]; Ca^2+ mobilization assay): 58 µM; cell viability [5]: Some inhibition of the cell viability; activity on β-lactamase [6]: −18%
